Legend:
IKZF1 protein = IKZF1 protein (Homo sapiens (Human), UniProt Q13422+Q96SW2); experiment: Western-blot assay of substrate protein degradation in hPBMC, IKZF1; format: cell-based; details: hPBMC cells, compound 500 nM, 24 hours, Western blot
[1] = target: human Cereblon WT GST-tagged protein (Homo sapiens (Human), UniProt Q96SW2); experiment: CRBN-binding affinity, HTRF (CEREBLON BINDING kit)
In short: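 HTRF competition readout: compounds compete with a thalidomide-Re conjugate for GST-tagged wild-type human CRBN detected via Eu-labelled anti-GST antibody. Inhibition rate derived relative to protein-free blank wells.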

IKZF3 protein = IKZF3 protein (Homo sapiens (Human), UniProt Q96SW2+Q9UKT9); experiment: Western-blot assay of substrate protein degradation in hPBMC, IKZF3; format: cell-based; details: hPBMC cells, compound 500 nM, 24 hours, Western blot
Chain of IKZF3 protein (Q9UKT9 whole entry): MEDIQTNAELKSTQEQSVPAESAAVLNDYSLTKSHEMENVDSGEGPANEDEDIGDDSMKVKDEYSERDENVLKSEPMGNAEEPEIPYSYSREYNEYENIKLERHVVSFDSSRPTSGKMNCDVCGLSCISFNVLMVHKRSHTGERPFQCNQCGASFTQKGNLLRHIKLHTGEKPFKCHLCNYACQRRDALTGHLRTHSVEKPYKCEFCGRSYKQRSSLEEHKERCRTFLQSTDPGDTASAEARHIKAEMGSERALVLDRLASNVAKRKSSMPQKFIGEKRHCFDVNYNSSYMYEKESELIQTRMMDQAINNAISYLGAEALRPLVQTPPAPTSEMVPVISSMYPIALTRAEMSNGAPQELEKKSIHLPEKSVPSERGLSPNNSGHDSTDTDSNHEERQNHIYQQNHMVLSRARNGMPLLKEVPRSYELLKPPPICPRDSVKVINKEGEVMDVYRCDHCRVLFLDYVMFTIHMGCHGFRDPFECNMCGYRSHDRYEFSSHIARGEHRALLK
Chain of IKZF3 protein (Q96SW2 whole entry): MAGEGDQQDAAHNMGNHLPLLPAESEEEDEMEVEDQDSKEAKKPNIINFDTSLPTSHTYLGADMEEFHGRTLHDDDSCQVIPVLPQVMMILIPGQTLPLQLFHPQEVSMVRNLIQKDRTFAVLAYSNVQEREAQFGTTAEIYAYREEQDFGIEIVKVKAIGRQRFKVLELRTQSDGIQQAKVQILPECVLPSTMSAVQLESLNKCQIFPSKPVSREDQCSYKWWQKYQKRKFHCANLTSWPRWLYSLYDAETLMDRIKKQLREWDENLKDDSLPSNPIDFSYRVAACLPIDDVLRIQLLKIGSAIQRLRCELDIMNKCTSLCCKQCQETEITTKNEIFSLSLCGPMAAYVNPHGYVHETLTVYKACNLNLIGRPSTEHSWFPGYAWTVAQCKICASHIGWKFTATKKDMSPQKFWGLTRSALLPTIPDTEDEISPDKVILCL
Chain of IKZF3 protein (Q16531 whole entry partner): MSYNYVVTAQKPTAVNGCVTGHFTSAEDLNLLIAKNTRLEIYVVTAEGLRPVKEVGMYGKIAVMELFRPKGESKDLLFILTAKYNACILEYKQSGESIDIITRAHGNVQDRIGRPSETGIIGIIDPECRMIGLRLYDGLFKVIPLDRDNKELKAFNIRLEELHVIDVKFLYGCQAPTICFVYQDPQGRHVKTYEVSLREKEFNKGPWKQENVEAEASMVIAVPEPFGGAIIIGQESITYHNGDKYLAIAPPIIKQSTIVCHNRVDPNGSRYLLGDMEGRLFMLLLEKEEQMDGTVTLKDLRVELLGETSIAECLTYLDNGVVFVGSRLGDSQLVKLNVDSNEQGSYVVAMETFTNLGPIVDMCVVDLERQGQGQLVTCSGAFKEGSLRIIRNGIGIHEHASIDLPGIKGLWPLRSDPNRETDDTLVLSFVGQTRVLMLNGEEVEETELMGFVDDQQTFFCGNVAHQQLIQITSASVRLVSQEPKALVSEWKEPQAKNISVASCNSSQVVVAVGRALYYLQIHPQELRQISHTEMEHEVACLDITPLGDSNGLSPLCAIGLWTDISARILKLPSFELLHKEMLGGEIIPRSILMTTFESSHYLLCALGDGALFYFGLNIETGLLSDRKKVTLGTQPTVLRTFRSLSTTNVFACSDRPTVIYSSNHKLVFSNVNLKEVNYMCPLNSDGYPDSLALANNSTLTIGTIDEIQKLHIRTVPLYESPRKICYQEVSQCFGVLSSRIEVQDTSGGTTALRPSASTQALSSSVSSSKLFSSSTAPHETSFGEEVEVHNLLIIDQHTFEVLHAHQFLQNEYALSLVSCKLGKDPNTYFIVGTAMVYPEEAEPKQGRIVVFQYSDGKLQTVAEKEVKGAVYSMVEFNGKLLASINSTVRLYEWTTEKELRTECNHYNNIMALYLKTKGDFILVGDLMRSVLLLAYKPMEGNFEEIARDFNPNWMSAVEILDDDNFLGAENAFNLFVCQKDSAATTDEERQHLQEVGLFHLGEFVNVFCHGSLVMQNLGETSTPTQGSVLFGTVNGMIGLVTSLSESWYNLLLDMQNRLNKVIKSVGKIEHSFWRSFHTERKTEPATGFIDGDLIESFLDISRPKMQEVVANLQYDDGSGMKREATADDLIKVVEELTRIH

[2] = Pharmacokinetic study, oral administration, mouse plasma; format: in vivo, mice
Method: The experimental animals used can be those commonly used in pharmacokinetic experiments, e.g., adult and healthy rodents (e.g., mice, rats (such as Sprague-Dawley (SD) rats), guinea pigs) or non-rodents (rabbits, dogs, and monkeys). In the present disclosure, mice were used as the experimental animals.
The experimental animals were divided into two groups: a control group (for collecting blank plasma) and an orally administered group (dosed at 10 mg/kg or 30 mg/kg). Blood samples were collected at predetermined sampling time points after administration, such as 0.25 h, 0.5 h, 1 h, 2 h, 4 h, 8 h, and 24 h post-dosing. Blank plasma was collected from the control group.
Plasma samples were preprocessed before analysis: 10 μL of 50% acetonitrile and 200 μL of internal standard solution (containing 50 ng/mL dexamethasone in acetonitrile) were added to 10 μL of plasma samples. For the blank control group, the same volume of acetonitrile was added instead of the internal standard. The processed samples were vortexed, centrifuged, and the supernatant was taken for LC-MS/MS injection analysis.
After preparing standard curves and quality control (QC) samples, the concentrations of the compounds in the plasma samples were determined by LC-MS/MS analysis. Based on the plasma concentration data obtained from LC-MS/MS analysis, the pharmacokinetic parameters of the test compounds were calculated using the non-compartmental model in the pharmacokinetic calculation software WinNonlin v8.1.

GSPT1 protein = GSPT1 protein (Homo sapiens (Human), UniProt P15170+Q96SW2); experiment: Western-blot assay of substrate protein degradation in hPBMC, GSPT1; format: cell-based; details: hPBMC cells, compound 500 nM, 24 hours, Western blot
Chain of GSPT1 protein (P15170 whole entry): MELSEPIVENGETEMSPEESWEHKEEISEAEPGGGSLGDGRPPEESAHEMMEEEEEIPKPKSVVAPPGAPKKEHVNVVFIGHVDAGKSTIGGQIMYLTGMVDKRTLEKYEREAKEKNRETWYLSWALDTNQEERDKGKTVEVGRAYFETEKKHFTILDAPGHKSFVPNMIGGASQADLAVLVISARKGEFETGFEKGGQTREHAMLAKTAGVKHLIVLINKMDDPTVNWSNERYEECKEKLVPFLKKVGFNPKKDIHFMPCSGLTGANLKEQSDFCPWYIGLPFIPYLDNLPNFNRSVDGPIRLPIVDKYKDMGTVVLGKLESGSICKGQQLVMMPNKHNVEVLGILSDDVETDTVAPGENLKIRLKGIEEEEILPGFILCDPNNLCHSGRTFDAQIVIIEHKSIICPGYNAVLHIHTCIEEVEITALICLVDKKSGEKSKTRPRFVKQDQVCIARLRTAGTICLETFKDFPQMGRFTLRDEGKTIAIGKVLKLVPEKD
Chain of GSPT1 protein (Q96SW2 whole entry): as the sequence (Q96SW2 whole entry) above
Chain of GSPT1 protein (Q16531 whole entry partner): as the sequence (Q16531 whole entry partner) above

Daudi cells = experiment: Tumor cell proliferation IC50 (CCK-8), Daudi; details: Homo sapiens, read-out: IC50 for inhibiting the proliferation of tumor cells, Daudi;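 also: cell viability read with CCK-8 reagent after compound exposure of Daudi cells, IC50 derived from plotted growth inhibition curves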
Method: (§1) The tumor cells used herein were cultured in a cell culture medium listed in table A at 37° C. in an incubator with 5% CO2.
(§2) After the cells were treated with the compounds of the present disclosure for a period of time, the cell viability detection reagent was added to the culture medium for cell viability assessment according to the instructions provided with the CCK-8 kit. […] The growth inhibition of the compounds of the present disclosure on cells was plotted by Prism Graphpad software, and the IC50 values of the compounds of the present disclosure were calculated therefrom.

MV-4-11 cells = experiment: Tumor cell proliferation IC50 (CCK-8), MV-4-11; details: Homo sapiens, MV4-11, 96 h, read-out: IC50 for inhibiting the proliferation of tumor cells, MV-4-11
Method: as §1, §2

Mino cells = experiment: Tumor cell proliferation IC50 (CCK-8), Mino; details: Homo sapiens, 72 h, read-out: IC50 for inhibiting the proliferation of tumor cells, Mino;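 also: cell viability assessed with CCK-8 reagent after compound exposure, IC50 derived from plotted growth inhibition curves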
Kasumi-1 cells = experiment: Tumor cell proliferation IC50 (CCK-8), Kasumi-1; details: Homo sapiens, Kasumi 1, 72 h, read-out: IC50 for inhibiting the proliferation of tumor cells, Kasumi-1
Method: as §1, §2

CCRF-CEM cells = experiment: Tumor cell proliferation IC50 (CCK-8), CCRF-CEM; details: Homo sapiens, 96 h, read-out: IC50 for inhibiting the proliferation of tumor cells, CCRF-CEM;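 also: cell viability measured with CCK-8 reagent after compound treatment, IC50 taken from plotted growth inhibition curves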
MM.1S cells = experiment: Tumor cell proliferation IC50 (CCK-8), MM.1S; details: Homo sapiens, MM1.S, 72 h, read-out: IC50 for inhibiting the proliferation of tumor cells, MM.1S;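 also: viability of cultured cells read by CCK-8 reagent after compound exposure, growth inhibition curves fitted to derive IC50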

Chain of human Cereblon WT GST-tagged protein (Q96SW2 whole entry): as the sequence (Q96SW2 whole entry) above
Chain of IKZF1 protein (Q13422 whole entry): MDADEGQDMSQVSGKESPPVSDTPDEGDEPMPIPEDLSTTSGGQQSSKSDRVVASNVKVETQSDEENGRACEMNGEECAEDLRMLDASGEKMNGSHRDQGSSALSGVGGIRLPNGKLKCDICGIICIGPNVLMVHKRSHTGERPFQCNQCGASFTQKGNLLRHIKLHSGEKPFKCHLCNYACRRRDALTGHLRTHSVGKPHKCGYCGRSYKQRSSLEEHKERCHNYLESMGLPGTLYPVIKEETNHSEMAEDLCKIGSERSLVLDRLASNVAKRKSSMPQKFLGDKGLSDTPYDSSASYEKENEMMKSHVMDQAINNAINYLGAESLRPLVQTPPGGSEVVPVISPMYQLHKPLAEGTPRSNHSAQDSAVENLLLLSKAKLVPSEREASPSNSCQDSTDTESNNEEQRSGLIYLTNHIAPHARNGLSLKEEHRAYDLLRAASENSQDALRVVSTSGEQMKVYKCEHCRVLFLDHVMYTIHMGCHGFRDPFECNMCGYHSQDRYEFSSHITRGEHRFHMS
Chain of IKZF1 protein (Q96SW2 whole entry): as the sequence (Q96SW2 whole entry) above
Chain of IKZF1 protein (Q16531 whole entry partner): as the sequence (Q16531 whole entry partner) above

With O=C1CCC(N2Cc3cc(CC4CN(C(=O)c5ccccc5-c5ccc(Cl)cc5)C4)ccc3C2=O)C(=O)N1 (centres unmarked) [GT-03922, 3-(5-((1-(4′-chloro-[1,1′-biphenyl]-2-carbonyl)azetidin-3-yl)methyl)-1-oxoisoindolin-2-yl)piperidine-2,6-dione] the “residual substrate protein level, IKZF1” value (IKZF1 protein) was “A (A represents a residual substrate protein level of <50%)”, the IC50 [1] was 160 nM and the “residual substrate protein level, IKZF3” value (IKZF3 protein) was “A (A represents a residual substrate protein level of <50%)”. For the same molecule, the AUC(0-t) ([2]; p.o. 10 mg/kg) was no more than 500 ng·h/mL and the “residual substrate protein level, GSPT1” value (GSPT1 protein) was “A (A represents a residual substrate protein level of <50%)”.
For O=C1CCC(N2C(=O)c3ccc(CN4CCN(Cc5ccccc5-c5ccc(Cl)cc5)CC4)cc3C2=O)C(=O)N1 (centres unmarked) [GT-05497, 5-((4-((4′-chloro-[1,1′-biphenyl]-2-yl)methyl)piperazin-1-yl)methyl)-2-(2,6-dioxopiperidin-3-yl)isoindoline-1,3-dione], the IC50 (Daudi cells) was 500 to 1000 nM, the “residual substrate protein level, IKZF1” value (IKZF1 protein) was “B (B represents a residual substrate protein level of >50%)” and the IC50 (MV-4-11 cells) was 100 to 500 nM. For the same molecule, the IC50 (Mino cells) was 100 to 500 nM, the “residual substrate protein level, IKZF3” value (IKZF3 protein) was “A (A represents a residual substrate protein level of <50%)” and the IC50 (Kasumi-1 cells) was 100 to 500 nM. The IC50 (CCRF-CEM cells) was 50 to 100 nM, the “residual substrate protein level, GSPT1” value (GSPT1 protein) was “A (A represents a residual substrate protein level of <50%)” and the IC50 (MM.1S cells) was 100 to 500 nM.
In the case of CC1(C)CCC(CN2CCN(Cc3cccc4c3CN(C3CCC(=O)NC3=O)C4=O)CC2)=C(c2ccc(Cl)cc2)C1 (centres unmarked) [GT-03649, 3-(4-((4-((4′-chloro-5,5-dimethyl-3,4,5,6-tetrahydro-[1,1′-biphenyl]-2-yl)methyl)piperazin-1-yl)methyl)-1-oxoisoindolin-2-yl)piperidine-2,6-dione], the AUC(0-t) ([2]; p.o. 30 mg/kg) is reported as greater than 500 ng·h/mL.
In the case of O=C1CCC(N2Cc3cc(CN4CCN(Cc5ccccc5-c5ccc(F)cc5)CC4)ccc3C2=O)C(=O)N1 (centres unmarked) [GT-04256, 3-(5-((4-((4′-fluoro-[1,1′-biphenyl]-2-yl)methyl)piperazin-1-yl)methyl)-1-oxoisoindolin-2-yl)piperidine-2,6-dione], the “residual substrate protein level, IKZF1” value (IKZF1 protein) is reported as “A (A represents a residual substrate protein level of <50%)”, the IC50 [1] is reported as 1420 nM and the “residual substrate protein level, IKZF3” value (IKZF3 protein) is reported as “A (A represents a residual substrate protein level of <50%)”. For the same molecule, the AUC(0-t) ([2]; p.o. 10 mg/kg) was no more than 500 ng·h/mL and the “residual substrate protein level, GSPT1” value (GSPT1 protein) was “A (A represents a residual substrate protein level of <50%)”.
With CC1(C)CCC(CN2CC3CCC(C2)N3Cc2cc3c(cc2F)C(=O)N(C2CCC(=O)NC2=O)C3)=C(c2ccc(Cl)cc2)C1 (centres unmarked) [GT-05494, 3-(5-((3-((4′-chloro-5,5-dimethyl-3,4,5,6-tetrahydro-[1,1′-biphenyl]-2-yl)methyl)-3,8-diazabicyclo[3.2.1]octan-8-yl)methyl)-6-fluoro-1-oxoisoindolin-2-yl)piperidine-2,6-dione] the “residual substrate protein level, IKZF1” value (IKZF1 protein) was “A (A represents a residual substrate protein level of <50%)”, the IC50 (MV-4-11 cells) was 100 to 500 nM and the “residual substrate protein level, IKZF3” value (IKZF3 protein) was “A (A represents a residual substrate protein level of <50%)”. The IC50 (CCRF-CEM cells) was 100 to 500 nM, the “residual substrate protein level, GSPT1” value (GSPT1 protein) was “A (A represents a residual substrate protein level of <50%)” and the IC50 (MM.1S cells) was 500 to 1000 nM.
In the case of O=C1CCC(N2Cc3cc(CC4CCN(C(=O)c5ccccc5-c5ccc(Cl)cc5)CC4)ccc3C2=O)C(=O)N1 (centres unmarked) [GT-05467, 3-(5-((1-(4′-chloro-[1,1′-biphenyl]-2-carbonyl)piperidin-4-yl)methyl)-1-oxoisoindolin-2-yl)piperidine-2,6-dione], the IC50 (Daudi cells) is reported as 100 to 500 nM, the “residual substrate protein level, IKZF1” value (IKZF1 protein) is reported as “B (B represents a residual substrate protein level of >50%)” and the IC50 (MV-4-11 cells) is reported as 10 to 50 nM. For the same molecule, the IC50 [1] was 520 nM, the IC50 (Mino cells) was 10 to 50 nM and the “residual substrate protein level, IKZF3” value (IKZF3 protein) was “B (B represents a residual substrate protein level of >50%)”. For the same molecule, the IC50 (Kasumi-1 cells) was 10 to 50 nM, the IC50 (CCRF-CEM cells) was 5 to 10 nM and the “residual substrate protein level, GSPT1” value (GSPT1 protein) was “A (A represents a residual substrate protein level of <50%)”. For the same molecule, the IC50 (MM.1S cells) was 10 to 50 nM.
For CC1(C)CCC(CN2CCN(Cc3cc4c(cc3F)C(=O)N(C3CCC(=O)NC3=O)C4)CC2)=C(c2ccc(F)cc2)C1 (centres unmarked) [GT-05391, 3-(6-fluoro-5-((4-((4′-fluoro-5,5-dimethyl-3,4,5,6-tetrahydro-[1,1′-biphenyl]-2-yl)methyl)piperazin-1-yl)methyl)-1-oxoisoindolin-2-yl)piperidine-2,6-dione], the IC50 (Daudi cells) was 10 to 50 nM, the “residual substrate protein level, IKZF1” value (IKZF1 protein) was “A (A represents a residual substrate protein level of <50%)” and the IC50 (MV-4-11 cells) was less than 5 nM. The IC50 [1] was 570 nM, the IC50 (Mino cells) was 5 to 10 nM and the “residual substrate protein level, IKZF3” value (IKZF3 protein) was “A (A represents a residual substrate protein level of <50%)”. The IC50 (Kasumi-1 cells) was 10 to 50 nM, the IC50 (CCRF-CEM cells) was less than 5 nM and the “residual substrate protein level, GSPT1” value (GSPT1 protein) was “A (A represents a residual substrate protein level of <50%)”. The IC50 (MM.1S cells) was 5 to 10 nM.
In the case of O=C1CCC(N2Cc3cc(CN4CCN(Cc5ccccc5-c5ccco5)CC4)ccc3C2=O)C(=O)N1 (centres unmarked) [GT-05779, 3-(5-((4-(2-(furan-2-yl)benzyl)piperazin-1-yl)methyl)-1-oxoisoindolin-2-yl)piperidine-2,6-dione], the IC50 (Daudi cells) is reported as 50 to 100 nM, the “residual substrate protein level, IKZF1” value (IKZF1 protein) is reported as “A (A represents a residual substrate protein level of <50%)” and the IC50 [1] is reported as 430 nM. For the same molecule, the IC50 (Mino cells) was 5 to 10 nM, the “residual substrate protein level, IKZF3” value (IKZF3 protein) was “A (A represents a residual substrate protein level of <50%)” and the IC50 (CCRF-CEM cells) was 5 to 10 nM. The “residual substrate protein level, GSPT1” value (GSPT1 protein) was “A (A represents a residual substrate protein level of <50%)” and the IC50 (MM.1S cells) was 5 to 10 nM.
With CC1(C)CCC(CN2CCN(Cc3ccc4c(c3F)CN(C3CCC(=O)NC3=O)C4=O)CC2)=C(c2ccc(F)cc2)C1 (centres unmarked) [GT-05390, 3-(4-fluoro-5-((4-((4′-fluoro-5,5-dimethyl-3,4,5,6-tetrahydro-[1,1′-biphenyl]-2-yl)methyl)piperazin-1-yl)methyl)-1-oxoisoindolin-2-yl)piperidine-2,6-dione] the “residual substrate protein level, IKZF1” value (IKZF1 protein) was “A (A represents a residual substrate protein level of <50%)”, the IC50 (MV-4-11 cells) was 100 to 500 nM and the IC50 [1] was 500 nM. The IC50 (Mino cells) was 10 to 50 nM, the “residual substrate protein level, IKZF3” value (IKZF3 protein) was “A (A represents a residual substrate protein level of <50%)” and the IC50 (CCRF-CEM cells) was 50 to 100 nM. For the same molecule, the “residual substrate protein level, GSPT1” value (GSPT1 protein) was “A (A represents a residual substrate protein level of <50%)” and the IC50 (MM.1S cells) was 10 to 50 nM.
For O=C1CCC(N2Cc3cc(CN4CCN(Cc5ccccc5-c5cccs5)CC4)ccc3C2=O)C(=O)N1 (centres unmarked) [GT-05519, 3-(1-oxo-5-((4-(2-(thiophen-2-yl)benzyl)piperazin-1-yl)methyl)isoindolin-2-yl)piperidine-2,6-dione], the IC50 (Daudi cells) was 5 to 10 nM, the “residual substrate protein level, IKZF1” value (IKZF1 protein) was “A (A represents a residual substrate protein level of <50%)” and the IC50 [1] was 410 nM. For the same molecule, the IC50 (Mino cells) was less than 5 nM, the “residual substrate protein level, IKZF3” value (IKZF3 protein) was “A (A represents a residual substrate protein level of <50%)” and the IC50 (CCRF-CEM cells) was less than 5 nM. The “residual substrate protein level, GSPT1” value (GSPT1 protein) was “A (A represents a residual substrate protein level of <50%)” and the IC50 (MM.1S cells) was less than 5 nM.
With O=C1CCC(N2Cc3cc(C=C4CN(C(=O)c5ccccc5-c5ccc(Cl)cc5)C4)ccc3C2=O)C(=O)N1 (centres unmarked) [GT-05482, 3-(5-((1-(4′-chloro-[1,1′-biphenyl]-2-carbonyl)azetidin-3-ylidene)methyl)-1-oxoisoindolin-2-yl)piperidine-2,6-dione] the IC50 (Daudi cells) was 10 to 50 nM, the “residual substrate protein level, IKZF1” value (IKZF1 protein) was “B (B represents a residual substrate protein level of >50%)” and the IC50 (MV-4-11 cells) was 5 to 10 nM. The IC50 [1] was 330 nM, the IC50 (Mino cells) was 5 to 10 nM and the “residual substrate protein level, IKZF3” value (IKZF3 protein) was “B (B represents a residual substrate protein level of >50%)”. The IC50 (Kasumi-1 cells) was 10 to 50 nM, the IC50 (CCRF-CEM cells) was 5 to 10 nM and the “residual substrate protein level, GSPT1” value (GSPT1 protein) was “A (A represents a residual substrate protein level of <50%)”. For the same molecule, the IC50 (MM.1S cells) was 5 to 10 nM.
